According to ChEMBL document CHEMBL5338758, “Design, Synthesis, and Bioevaluation of Novel MyD88 Inhibitor c17 against Acute Lung Injury Derived from the Virtual Screen” (J Med Chem, 2023):
Calls of active or inactive are those of the source. The calls are words filed in the database; no cut-off is given here.

Columns and labels:
[1] = Drug distribution in Sprague-Dawley rat lung at 10 mg/kg, po measured after 8 hrs by LC-MS/MS analysis; format: ADME, organism-based; conditions: read-out: Drug uptake
THP-1 [2] = assay: Anti-inflammatory activity in human THP-1 cells assessed as inhibition of LPS-stimulated IL-6 release at 1.25 to 20 uM by ELISA analysis; format: functional, cell-based; conditions: dose 1.25-20 µM
[3] = Drug distribution in Sprague-Dawley rat lung at 10 mg/kg, po measured after 3 hrs by LC-MS/MS analysis; format: ADME, organism-based; conditions: read-out: Drug uptake
J774.A1 [4] = assay: Anti-inflammatory activity in mouse J774.A1 cells assessed as inhibition of LPS-induced TNF-alpha production at 10 uM pre-stimulated with LPS for 24 hrs followed by compound addition and measured after 0.5 hrs by ELISA analysis relative to control; format: functional
[5] = Drug distribution in Sprague-Dawley rat liver at 10 mg/kg, po measured after 8 hrs by LC-MS/MS analysis; format: ADME, organism-based; conditions: read-out: Drug uptake
Mus musculus [6] = assay: (§1) Anti-inflammatory activity against LPS-induced […] mouse model of […] assessed as decrease in IL-6 mRNA level in lung at 20 mg/kg, po pre-treated with compound for 30 mins followed by LPS stimulation and measured after 6 hrs by qRT-PCR analysis; format: functional, organism-based; conditions: time 6.5 hrs
[7] = Drug distribution in Sprague-Dawley rat kidney at 10 mg/kg, po measured after 3 hrs by LC-MS/MS analysis; format: ADME, organism-based; conditions: read-out: Drug uptake
[8] = Drug distribution in Sprague-Dawley rat kidney at 10 mg/kg, po measured after 8 hrs by LC-MS/MS analysis; format: ADME, organism-based; conditions: read-out: Drug uptake
[9] = Tmax in Sprague-Dawley rat at 1 mg/kg, iv measured at 5 to 1440 min by LC-MS/MS analysis; format: ADME, organism-based; conditions: in vivo, time 5-1440 min
[10] = Half-life in Sprague-Dawley rat at 1 mg/kg, iv measured at 5 to 1440 min by LC-MS/MS analysis; format: ADME, organism-based; conditions: in vivo, time 5-1440 min
[11] = Drug distribution in Sprague-Dawley rat spleen at 10 mg/kg, po measured after 1 hrs by LC-MS/MS analysis; format: ADME, organism-based; conditions: read-out: Drug uptake
J774.A1 [12] = assay: Anti-inflammatory activity in mouse J774.A1 cells assessed as inhibition of LPS-induced IL-6 production at 10 uM pre-stimulated with LPS for 24 hrs followed by compound addition and measured after 0.5 hrs by ELISA analysis relative to control; format: functional
[13] = Drug distribution in Sprague-Dawley rat heart at 1 mg/kg, iv measured after 0.5 hrs by LC-MS/MS analysis; format: ADME, organism-based; conditions: read-out: Drug uptake
[14] = Drug distribution in Sprague-Dawley rat heart at 10 mg/kg, po measured after 1 hrs by LC-MS/MS analysis; format: ADME, organism-based; conditions: read-out: Drug uptake
J774.A1 [15] = assay: Inhibition of NF-kappaB pathway in LPS-induced mouse J774.A1 cells assessed as reduction in p65 nuclear reactivity preincubated with compound for 2 hrs followed by LPS-stimulation and measured after 15 mins by DAPI staining based immunofluorescence analysis; format: cell-based; conditions: time 135.0 min
Mus musculus [16] = assay: Anti-inflammatory activity against LPS-induced […] mouse model of […] assessed as decrease in TNF-alpha level in serum at 20 mg/kg, po pre-treated with compound for 30 mins followed by LPS stimulation and measured after 6 hrs; format: functional, organism-based; conditions: time 6.5 hrs
[17] = Drug distribution in Sprague-Dawley rat liver at 10 mg/kg, po measured after 1 hrs by LC-MS/MS analysis; format: ADME, organism-based; conditions: read-out: Drug uptake
J774.A1 [18] = assay: Cytotoxicity against mouse J774.A1 cells assessed as reduction in cell survival incubated for 24 hrs by MTT assay; format: toxicity, cell-based; conditions: j774.a1, 24 h
Mus musculus [19] = assay: as §1, with “alleviation of thickened alveolar septa” for “decrease in IL-6 mRNA level”, “H&E staining based histopathological” for “qRT-PCR”; format: functional, organism-based; conditions: time 6.5 hrs
Mus musculus [20] = assay: Anti-inflammatory activity against LPS-induced […] mouse model of […] assessed as decrease in IL-6 level in serum at 20 mg/kg, po pre-treated with compound for 30 mins followed by LPS stimulation and measured after 6 hrs; format: functional, organism-based; conditions: time 6.5 hrs
[21] = Drug distribution in Sprague-Dawley rat liver at 1 mg/kg, iv measured after 4 hrs by LC-MS/MS analysis; format: ADME, organism-based; conditions: read-out: Drug uptake
[22] = Drug distribution in Sprague-Dawley rat brain at 1 mg/kg, iv measured after 4 hrs by LC-MS/MS analysis; format: ADME, organism-based; conditions: read-out: Drug uptake
[23] = Drug distribution in Sprague-Dawley rat heart at 10 mg/kg, po measured after 8 hrs by LC-MS/MS analysis; format: ADME, organism-based; conditions: read-out: Drug uptake
[24] = Drug distribution in Sprague-Dawley rat heart at 1 mg/kg, iv measured after 4 hrs by LC-MS/MS analysis; format: ADME, organism-based; conditions: read-out: Drug uptake
THP-1 [25] = assay: Anti-inflammatory activity in human THP-1 cells assessed as inhibition of LPS-stimulated TNF-alpha release at 1.25 to 20 uM by ELISA analysis; format: functional, cell-based; conditions: dose 1.25-20 µM
[26] = target: Myeloid differentiation primary response protein MyD88 (Homo sapiens, UniProt Q99836); assay: Binding affinity to human MyD88 TIR domain by SPR analysis; conditions: dose 1.19-5.94 10^-5M
Mus musculus [27] = assay: Anti-inflammatory activity against LPS-induced […] mouse model of […] assessed as alleviation of interstitial edema in lung at 20 mg/kg, po pre-treated with compound for 30 mins followed by LPS stimulation and measured after 6 hrs by H&E staining based histopathological analysis; format: functional, organism-based; conditions: time 6.5 hrs
[28] = Drug distribution in Sprague-Dawley rat brain at 1 mg/kg, iv measured after 2 hrs by LC-MS/MS analysis; format: ADME, organism-based; conditions: read-out: Drug uptake
J774.A1 [29] = assay: Anti-inflammatory activity in mouse J774.A1 cells assessed as inhibition of LPS-induced IL-6 production pre-stimulated with LPS for 24 hrs followed by compound addition and measured after 0.5 hrs by ELISA analysis; format: functional, cell-based
[30] = Cmax in Sprague-Dawley rat at 10 mg/kg, po measured at 15 to 1440 min by LC-MS/MS analysis; format: ADME, organism-based; design: time lower 15 min, dose 10 mg/kg, time upper 1440 min, route po; conditions: in vivo
Mus musculus [31] = assay: Anti-inflammatory activity against LPS-induced […] mouse model of […] assessed as alleviation of lung edema by measuring decrease in wet/dry weight ratio at 20 mg/kg, po pre-treated with compound for 30 mins followed by LPS stimulation and measured after 6 hrs; format: functional, organism-based; conditions: time 6.5 hrs
[32] = Drug distribution in Sprague-Dawley rat spleen at 10 mg/kg, po measured after 3 hrs by LC-MS/MS analysis; format: ADME, organism-based; conditions: read-out: Drug uptake
[33] = Drug distribution in Sprague-Dawley rat kidney at 1 mg/kg, iv measured after 2 hrs by LC-MS/MS analysis; format: ADME, organism-based; conditions: read-out: Drug uptake

Myeloid differentiation primary response protein MyD88, sequence (Q99836 whole entry, the tested form may be a part): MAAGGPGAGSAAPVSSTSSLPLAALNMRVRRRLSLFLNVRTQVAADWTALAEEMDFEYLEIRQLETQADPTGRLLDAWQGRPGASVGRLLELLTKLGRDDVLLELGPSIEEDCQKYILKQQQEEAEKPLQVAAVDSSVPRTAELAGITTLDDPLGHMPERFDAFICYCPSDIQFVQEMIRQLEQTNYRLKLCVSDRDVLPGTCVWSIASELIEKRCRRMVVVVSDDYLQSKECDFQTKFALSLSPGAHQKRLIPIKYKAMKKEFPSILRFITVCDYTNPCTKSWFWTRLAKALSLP

COc1ccc(NS(=O)(=O)c2ccc(N3CCN(Cc4cccc([N+](=O)[O-])c4)CC3)c([N+](=O)[O-])c2)cn1
concentration at 8 h [1]: 527 ng/g
inhibition (THP-1 [2]): Active
concentration at 3 h [3]: 37.1 ng/g
inhibition at 10 µM (J774.A1 [4]): 36.7%
concentration at 8 h [5]: 249 ng/g
Activity (Mus musculus [6]): Active
concentration at 3 h [7]: 3.31 ng/g
concentration at 8 h [8]: 656 ng/g
Tmax [9]: 6 min
half-life [10]: 66 min
concentration at 1 h [11]: 78.8 ng/g
inhibition at 10 µM (J774.A1 [12]): 69%
concentration at 0.5 h [13]: 52.1 ng/g
concentration at 1 h [14]: 10.6 ng/g
inhibition (J774.A1 [15]): Active
Activity (Mus musculus [16]): Active
concentration at 1 h [17]: 267 ng/g
Activity (J774.A1 [18]): Non-Toxic
Activity (Mus musculus [19]): Active
Activity (Mus musculus [20]): Active
concentration at 4 h [21]: 137 ng/g
concentration at 4 h [22]: 7.99 ng/g
concentration at 8 h [23]: 452 ng/g
concentration at 4 h [24]: 275 ng/g
inhibition (THP-1 [25]): Active
Activity [26]: Dose-Dependent Effect
Activity (Mus musculus [27]): Active
concentration at 2 h [28]: 0.66 ng/g
IC50 (J774.A1 [29]): 2.17 µM
Cmax [30]: 2.21 µg/mL
Activity (Mus musculus [31]): Active
concentration at 3 h [32]: 32 ng/g
concentration at 2 h [33]: 143 ng/g
